Test results reported in US11926619B2, “Certain pladienolide compounds and methods of use” (EISAI R&D MANAGEMENT CO., LTD., priority 2018, dated 2024).

How the values were obtained:
[1] = from C=CC[C@@](C)(CCCCC(=O)O[C@H](/C(C)=C/I)[C@@H](C)C=C)O[Si](CC)(CC)CC; rcm bond; Hoveyda-Grubbs catalyst; toluene; 4.0 mM; 50.0 °C; 2.0 h
[2] = system: WiDr-R cells (colon cancer cells; chemically-induced SF3B1 R1074H mutant); conditions: R1074H mutation; cited from earlier work
[3] = system: Panc 05.04 cells (pancreatic cancer cells; Q699H and K700E mutations in SF3B1); experiment: Cell viability assay (CellTiter-Glo, 72 hr), Panc 05.04 cells; format: cell-based; conditions: Panc 05.04 cells (mutant SF3B1); for Emax: maximum achievable response in tested dose range, negative value = cellular lethality, read-out: Panc 05.04 (mt SF3B1 cells) Emax (%); for GI50: read-out: Panc 05.04 (mt SF3B1 cells), GI50
Summary of the method: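 Viability was read as ATP content (CellTiter-Glo) after 72 hr compound exposure of Panc 05.04 cells at 37 °C, nine concentrations, 0.1% DMSO. Percentage growth was referenced to time-zero and vehicle wells and plotted against concentration to obtain Emax; negative Emax denotes cell killing.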

[4] = biological target: T1, SF3b complexes (Homo sapiens, UniProt O75533+Q7RTV0); experiment: Scintillation proximity assay (SPA) with [3H]-labelled pladienolide probe; format: binding; conditions: wt SF3B1, read-out: SPA (wt SF3B1 cells) IC50
T1 construct: endogenous in cells
Summary of the method: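 SF3b complexes immunoprecipitated from nuclear extracts with anti-SF3B1 antibody on anti-mouse PVT SPA beads. Beads pre-incubated 30 min with varying PB or PB-OH, then 2.5 nM [3H]-PB added for 30 min; scintillation signal read and fit by non-linear regression.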

[5] = system: WiDr-R cells (colon cancer cells; chemically-induced SF3B1 R1074H mutant); experiment: Cell viability assay (CellTiter-Glo, 72 hr), resistant WiDr-R cells (counter-screen); format: cell-based; conditions: WiDr-R cells (SF3B1 R1074H mutation, resistant); read-out: WiDr-R GI50
Summary of the method: (§1)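 Cells at 2000/well were exposed to 9 compound concentrations (0.1% DMSO) in duplicate or triplicate for 72 hr at 37 °C. ATP was read by CellTiter-Glo against a time-zero plate and DMSO control growth. Percent growth/viability was plotted against concentration to give Emax; negative values indicate lethality.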

[6] = system: WiDr cells (colon cancer cells; wildtype SF3B1); experiment: Cell viability assay (CellTiter-Glo, 72 hr), WiDr cells; format: cell-based; conditions: Homo sapiens; WiDr cells (wildtype SF3B1); read-out: WiDr GI50
Summary of the method: as §1

[7] = in vivo; cited from earlier work

| Compound | ring closure, yield of all isomers [1] [%] | resistance of WiDr-R cells in terms of growth inhibition [2] | Emax [3] [%] | GI50 [3] [nM] | IC50 [4] [nM] | GI50 [5] [nM] | GI50 [6] [nM] | plasma half-life [7] |
| --- | --- | --- | --- | --- | --- | --- | --- | --- |
| CC[Si](CC)(CC)O[C@@]1(C)CC=C[C@H](C)[C@@H](/C(C)=C/I)OC(=O)CCCC1 | 53 |  |  |  |  |  |  |  |
| CCC(O)C(C)C1OC1CC(C)(O)/C=C/C=C(\C)C1OC(=O)CC(O)CCC(C)(O)C(OC(=O)N2CCN(C3CCCCCC3)CC2)/C=C/C1C (stereo not drawn) [Compound E7107, (8E,12E,14E)-7-((4-Cycoheptylpiperazin-1-yl)carbonyl)oxy-3,6,16,21-tetrahydroxy-6,10,12,16,20-pentamethyl-18,19-epoxytricosa-8,12,14-trien-11-olide] |  | resistant |  |  |  |  |  |  |
| C/C(=C\C=C\C(C)c1cccc(N2CCCC2)n1)[C@H]1OC(=O)C[C@H](O)CC[C@@](C)(O)[C@@H](OC(=O)N2CCN(C3CCCCCC3)CC2)/C=C/[C@@H]1C (stereo partly drawn) |  |  | -95.3 | 122 | 21.9 | > 1000 | 320 |  |
| C/C(=C\C=C\[C@@H](C)COC(=O)N1CC[C@@H](N(C)C)C1)[C@H]1OC(=O)C[C@H](O)CC[C@@](C)(O)[C@@H](OC(=O)N2CCN(C3CCCCCC3)CC2)/C=C/[C@@H]1C |  |  | -85.4 | 33 | 9.7 | 3990 | 30.2 |  |
| C/C(=C\C=C\C(C)c1ccncc1)[C@H]1OC(=O)C[C@H](O)CC[C@@](C)(O)[C@@H](OC(=O)N2CCN(C3CCCCCC3)CC2)/C=C/[C@@H]1C (stereo partly drawn) |  |  | -95.1 | 6.63 | 2.74 | > 1000 | 14 |  |
| COC(=O)CC[C@H](C)/C=C/C=C(\C)[C@H]1OC(=O)C[C@H](O)CC[C@@](C)(O)[C@@H](OC(=O)N2CCN(C3CCCCCC3)CC2)/C=C/[C@@H]1C |  |  | -96.9 | 51.3 | 4.54 | > 1000 | 103 |  |
| C/C(=C\C=C/[C@@H](C)COC(=O)N1CC[C@@H](O)C1)[C@H]1OC(=O)C[C@H](O)CC[C@H](C)[C@@H](OC(=O)N2CCN(C)CC2)/C=C/[C@@H]1C |  |  | -90.4 | 6.67 | 2.15 | > 1000 | 4.51 |  |
| C/C(=C\C=C\C(C)c1cccnc1)[C@H]1OC(=O)C[C@H](O)CC[C@@](C)(O)[C@@H](OC(=O)N2CCN(C3CCCCCC3)CC2)/C=C/[C@@H]1C (stereo partly drawn) |  |  | -95.4 | 10.4 | 2.51 | > 1000 | 19.7 |  |
| C/C(=C\C=C\[C@@H](C)c1ccccn1)[C@H]1OC(=O)C[C@H](O)CC[C@@](C)(O)[C@@H](OC(=O)N2CCN(C(C)C)CC2)/C=C/[C@@H]1C |  |  | -90.1 | 26.6 | 6.37 | > 1000 | 31.8 |  |
| tremelimumab |  |  |  |  |  |  |  | approximately 22 days |
| CC(=O)O[C@H]1/C=C/[C@H](C)[C@@H](/C(C)=C/C=C/[C@@H](C)c2ccccn2)OC(=O)C[C@H](O)CC[C@@H]1C |  |  | 28.1 | 2890 | 538 | > 10000 | 421 |  |
| C/C(=C\C=C\[C@@H](C)COC(=O)N1CC[C@@H](O)C1)[C@H]1OC(=O)CCCCC[C@@H](OC(=O)N2CCN(C)CC2)/C=C/[C@@H]1C |  |  | -87 | 6.48 | 5.42 | 2840 | 8.59 |  |
| CC(=O)O[C@H]1/C=C/[C@H](C)[C@@H](/C(C)=C/C=C/[C@@H](C)COC(=O)N2CCC[C@@H]2CO)OC(=O)C[C@H](O)CC[C@@]1(C)O |  |  | -83.4 | 35.1 | 80.4 | > 10000 | 24.7 |  |
| C/C(=C\C=C\[C@H](C)c1nccc(C)n1)[C@H]1OC(=O)C[C@H](O)CC[C@@](C)(O)[C@@H](OC(=O)N2CCN(C3CCCCCC3)CC2)/C=C/[C@@H]1C |  |  | -76.7 | 101 | 9.7 | > 1000 | 125 |  |
| C/C(=C\C=C\[C@@H](C)COC(=O)N1CCC[C@H]1CO)[C@H]1OC(=O)CCCCC[C@@H](OC(=O)N2CCN(CC(F)(F)F)CC2)/C=C/[C@@H]1C |  |  | -85.6 | 54.7 | 113 | > 1000 | 65.5 |  |
| C/C(=C\C=C\[C@@H](C)c1ccccn1)[C@H]1OC(=O)C[C@H](O)CC[C@@](C)(O)[C@@H](OC(=O)N2CCN(C3CCCC3)CC2)/C=C/[C@@H]1C |  |  | -89.5 | 27.9 | 8.76 | > 1000 | 19.6 |  |
| CC(=O)O[C@H]1/C=C/[C@H](C)[C@@H](/C(C)=C/C=C/[C@H](C)c2ccccn2)OC(=O)C[C@H](O)CC[C@@]1(C)O |  |  | 1.96 | 546 | 235 | > 10000 | 205 |  |
| C/C(=C\C=C\[C@@H](C)COC(=O)N1CCCC1)[C@H]1OC(=O)C[C@H](O)CC[C@H](C)[C@@H](OC(=O)N2CCN(C)CC2)/C=C/[C@@H]1C |  |  | -86 | 1.36 | 2.96 | > 1000 | 3.81 |  |
